The values below come from patent US6358982B1, “Heterocyclyl sulphonamide derivatives” (Eli Lilly and Company, priority 1998, dated 2002).

In this assay the target is T1, human GluR4B receptor (Homo sapiens, UniProt P48058).
T1 construct: expressed in transfected cells
Briefly: potentiation of agonist-induced excitability of human GluR4B receptor expressed in HEK 293 cells (Fluo-3 calcium fluorescence). To be noted: human GluR4B expressed in HEK 293 cells. The assay is classed as cell-based. The source says: The ability of compounds of formula I to potentiate glutamate receptor-mediated response may be determined using fluorescent calcium indicator dyes (Molecular Probes, Eugene, Oreg., Fluo-3) and by measuring glutamate-evoked efflux of calcium into GluR4 transfected HEK293 cells, as described in more detail below.
In one test, 96 well plates containing confluent monolayers of HEK cells stably expressing human GluR4B (obtained as described in European Patent Application Publication Number EP-A1-583917) are prepared. The tissue culture medium in the wells is then discarded, and the wells are each washed once with 200 μl of buffer (glucose, 10 mM, sodium chloride, 138 mM, magnesium chloride, 1 mM, potassium chloride, 5 mM, calcium chloride, 5 mM, N-[2-hydroxyethyl]-piperazine-N-[2-ethanesulfonic acid], 10 mM, to pH 7.1 to 7.3). […]
Each test is then performed as follows. […] A second fluorescent reading is taken after 5 minutes incubation. 15 μl of 400 μM glutamate solution is then added to each well (final glutamate concentration […]), and a third reading is taken. The activities of test compounds and cyclothiazide solutions are determined by subtracting the second from the third reading (fluorescence due to addition of glutamate in the presence or absence of test compound or cyclothiazide) and are expressed relative to enhance fluorescence produced by 100 μM cyclothiazide.

T1 sequence (P48058 21-902): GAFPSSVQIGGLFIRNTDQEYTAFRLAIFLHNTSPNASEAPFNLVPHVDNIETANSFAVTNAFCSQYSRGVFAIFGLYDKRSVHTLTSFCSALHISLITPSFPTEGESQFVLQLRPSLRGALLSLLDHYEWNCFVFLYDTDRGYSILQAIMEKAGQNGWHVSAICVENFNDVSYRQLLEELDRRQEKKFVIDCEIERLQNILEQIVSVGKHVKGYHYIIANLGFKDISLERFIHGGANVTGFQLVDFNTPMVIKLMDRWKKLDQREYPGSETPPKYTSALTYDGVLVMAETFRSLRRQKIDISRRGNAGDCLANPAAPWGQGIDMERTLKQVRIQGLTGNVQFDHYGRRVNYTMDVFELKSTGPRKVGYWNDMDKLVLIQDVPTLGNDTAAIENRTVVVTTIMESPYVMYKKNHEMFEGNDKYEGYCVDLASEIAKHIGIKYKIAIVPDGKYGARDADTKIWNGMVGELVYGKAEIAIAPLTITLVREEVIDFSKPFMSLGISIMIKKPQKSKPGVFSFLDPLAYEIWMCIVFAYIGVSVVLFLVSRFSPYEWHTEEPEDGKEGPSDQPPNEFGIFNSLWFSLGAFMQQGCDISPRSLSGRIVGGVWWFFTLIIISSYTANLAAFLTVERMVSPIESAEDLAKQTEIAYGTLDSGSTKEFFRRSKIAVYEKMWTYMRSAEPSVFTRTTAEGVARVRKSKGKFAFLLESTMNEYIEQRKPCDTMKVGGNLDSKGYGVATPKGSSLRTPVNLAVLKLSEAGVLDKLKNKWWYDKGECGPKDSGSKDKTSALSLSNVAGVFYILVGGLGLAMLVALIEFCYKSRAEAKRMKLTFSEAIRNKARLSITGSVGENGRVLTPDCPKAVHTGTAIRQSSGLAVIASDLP

As for `NS(=O)(=O)c1cc2c(cc1Cl)NC(C1CC3C=CC1C3)NS2(=O)=O` (stereo not shown) [cyclothiazide], the “potentiation of agonist-induced excitability of human GluR4B receptor” value is given as “potentiate”.
